Test results as given in patent US10519111B2, “UV absorbing compounds, compositions comprising same and uses thereof” (CORAL SUNSCREEN PTY LTD, priority 2013, dated 2019).
Several values for one entry are separate records, joined by “and”; a condition that tells them apart may be missing. Identical values can stand only once.

Tests used:
[1] = Critical wavelength (λcrit), approximate in-house measurement; assay type: physicochemical
Source text: As the precise test for critical wavelength was unable to be replicated exactly by the inventors due to the need for specialist equipment and a specific calibration of the spectrophotometer, these values are only approximate to a degree. […] This represents a highly useful result and so, compounds based around this benzoyl substitution pattern shown, are especially preferred.

[2] = UV absorption properties (λmax, molar extinction coefficient ε, efficiency E 1%, 1 cm); assay type: physicochemical; details: for ε (molar extinction coefficient): values in order of the λmax values; for shift / increase in λmax: versus base enaminoketone or alkanoyl counterparts
[3] = Table 13A, miscellaneous compounds

UV λmax [2]	ε (molar extinction coefficient) [2]	Structure (SMILES)	further results
304 nm	34588 M⁻¹ cm⁻¹	Cc1ccc(S(=O)(=O)NC(=O)C2=CN(C(C)(C)C)CCC2(C)C)cc1 [Compound 186, 1-(tert-butyl)-4,4-dimethyl-N-tosyl-1,4,5,6-tetrahydropyridine-3-carboxamide]	
363 nm	20881 M⁻¹ cm⁻¹	CC1(C)CCN(C(C)(C)C)C=C1C(=S)Nc1ccccc1 [Compound 182, 1-(tert-butyl)-4,4-dimethyl-N-phenyl-1,4,5,6-tetrahydropyridine-3-carbothioamide]	
322 nm	71962 M⁻¹ cm⁻¹	CC1(C)CCN(C(C)(C)C)C=C1C(=O)Nc1ccc(NC(=O)C2=CN(C(C)(C)C)CCC2(C)C)cc1 [Compound 187, N,N′-(1,4-phenylene)bis(1-(tert-butyl)-4,4-dimethyl-1,4,5,6-tetrahydropyridine-3-carboxamide)]	
331 nm	68095 M⁻¹ cm⁻¹	CC1(C)CCN(c2ccc(C(C)(C)C)cc2)C=C1C(=O)Nc1ccc(NC(=O)C2=CN(c3ccc(C(C)(C)C)cc3)CCC2(C)C)cc1 [Compound 191, N,N′-(1,4-phenylene)bis(1-(4-(tert-butyl)phenyl)-4,4-dimethyl-1,4,5,6-tetrahydropyridine-3-carboxamide)]	
313 nm	55779 M⁻¹ cm⁻¹	CC1(C)CCN(C(C)(C)C)C=C1C(=O)Nc1cccc(NC(=O)C2=CN(C(C)(C)C)CCC2(C)C)c1 [Compound 188, N,N′-(1,3-phenylene)bis(1-(tert-butyl)-4,4-dimethyl-1,4,5,6-tetrahydropyridine-3-carboxamide)]	
337 nm	42723 M⁻¹ cm⁻¹	CC1(C)CCN(c2ccc(C(C)(C)C)cc2)C=C1C(=O)C(F)(F)F [Compound 194, 1-(1-(4-(tert-butyl)phenyl)-4,4-dimethyl-1,4,5,6-tetrahydropyridin-3-yl)-2,2,2-trifluoroethanone]	
288 nm	22531 M⁻¹ cm⁻¹	CCCCNC(=O)C1=CN(C(C)(C)C)CCC1(C)C [Compound 183, 1-(tert-butyl)-N-butyl-4,4-dimethyl-1,4,5,6-tetrahydropyridine-3-carboxamide]	
388 nm	14911 M⁻¹ cm⁻¹	Cc1ccc(N2C=CC(C)(C)C(C(=O)C(F)(F)F)=C2)cc1 [Compound 199, 1-(4,4-dimethyl-1-(p-tolyl)-1,4-dihydropyridin-3-yl)-2,2,2-trifluoroethanone]	
253 nm	10016 M⁻¹ cm⁻¹	Cc1nn(C)c(N2C=CC(C)(C)C=C2)c1C(=O)C(F)(F)F [Compound 200, 1-(5-(4,4-dimethylpyridin-1(4H)-yl)-1,3-dimethyl-1 H-pyrazol-4-yl)-2,2,2-trifluoroethanone]	

Second part, the compound before the results:

Structure (SMILES)	UV λmax [2]	ε (molar extinction coefficient) [2]	further results
COc1ccc(C(=O)CC(=O)C2=CN(CC(C)C)CCC2(C)C)cc1 [drawing 53]			λcrit ([1]; Table 2, compounds 11-13): 389 nm
CC1(C)CCN(c2ccccc2)C=C1C(=O)/C=C/c1ccc(/C=C/C(=O)C2=CN(c3ccccc3)CCC2(C)C)cc1			λcrit ([1]; Table 13B): 390 nm
CC(C)CN1C=C(C(=O)/C=C/C=Cc2ccccc2)C(C)(C)CC1 [drawing 115]			λcrit ([1]; Table 7): 387 nm
CC(C)CN1C=C(C(=O)C(C#N)=C(c2ccccc2)c2ccccc2)C(C)(C)CC1 [drawing 118]			λcrit ([1]; Table 7): 357 nm
CC1(C)CCN(C(C)(C)C)C=C1C(=O)CC(=O)c1ccccc1 [drawing 76]			λcrit ([1]; Table 5): 385 nm
CC1(C)CCN(C(C)(C)C)C=C1C(=O)/C=C/c1c2ccccc2c(/C=C/C(=O)C2=CN(C(C)(C)C)CCC2(C)C)c2ccccc12			λcrit ([1]; Table 13B): 389 nm
CCCN(CCC)c1ccc(C(=O)C2=CN(C(C)(C)C)CCC2(C)C)cc1			λcrit ([1]; Table 13B): 365 nm
C=CC(=O)C1=CN(C(C)(C)C)CCC1(C)C [Compound 154, 1-(1-(tert-butyl)-4,4-dimethyl-1,4,5,6-tetrahydropyridin-3-yl)prop-2-en-1-one]	328 nm	24907 M⁻¹ cm⁻¹	
COc1ccc(N2C=C(C(=O)c3ccc(F)cc3)C(C)(C)CC2)cc1 [Compound 54, (4-fluorophenyl)(1-(4-methoxyphenyl)-4,4-dimethyl-1,4,5,6-tetrahydropyridin-3-yl)methanone]	341 nm	19350 M⁻¹ cm⁻¹	
CC1(C)CCN(c2ccccc2)C=C1C(=O)c1ccc(Br)cc1 [Compound 49, (4-bromophenyl)(1-(phenyl)-4,4-dimethyl-1,4,5,6-tetrahydropyridin-3-yl)methanone]	338 nm	23300 M⁻¹ cm⁻¹	
CC(C)CN1C=C(C(=O)C(C#N)=C(c2ccccc2)c2ccccc2)C(C)(C)CC1 [Compound 39]	297 nm and 317 nm	15750 M⁻¹ cm⁻¹ and 16150 M⁻¹ cm⁻¹	
CCC(=O)C1=C(c2ccccc2)N(CC(C)C)CCC1(C)C [Compound 58, 1-(1-isobutyl-4,4-dimethyl-2-phenyl-1,4,5,6-tetrahydropyridin-3-yl)propan-1-one]	338 nm	8000 M⁻¹ cm⁻¹	
CC(C)CN1C=C(C(=O)C(c2ccccc2)c2ccccc2)C(C)(C)CC1 [drawing 172]			E (1%, 1 cm) ([2]; Table 13A): 716; ε ([2]; Table 13A): 26000 M⁻¹ cm⁻¹; λmax [2, 3]: 314 nm
COc1ccc(C(=O)C(CCCCCC(=O)C2=CN(CC(C)C)CCC2(C)C)C(=O)c2ccc(C(C)(C)C)cc2)cc1 (stereo not shown) [Compound 5]	306 nm		
CC(C)CN1C=C(S(=O)(=O)c2ccccc2)C(C)(C)CC1 [Compound 72, 1-Isobutyl-4,4-dimethyl-5-(phenylsulfonyl)-1,2,3,4-tetrahydropyridine]	285 nm		
CC1(C)C=CN(c2ccccc2)CC1 [Compound 46, 4,4-dimethyl-1-phenyl-1,2,3,4-tetrahydropyridine]	278 nm	22550 M⁻¹ cm⁻¹	

Structure (SMILES)	UV λmax [2]	ε (molar extinction coefficient) [2]	further results
CC(C)CN1C=C(C(=O)c2ccc(C(C)(C)C)cc2)C(C)(C)CC1 [Compound 11, (4-(tert-butyl)phenyl)(1-isobutyl-4,4-dimethyl-1,4,5,6-tetrahydropyridin-3-yl)methanone]	317 nm	19000 M⁻¹ cm⁻¹	shift / increase in λmax [2]: approximately 11 nm
CC(C)CN1C=C(S(=O)(=O)c2ccccc2)C(C)(C)CC1 [drawing 173]			E (1%, 1 cm) ([2]; Table 13A): 359; ε ([2]; Table 13A): 11000 M⁻¹ cm⁻¹; λmax [2, 3]: 285 nm
COc1ccc(N2C=CC(C)(C)CC2)cc1 [drawing 126]			λmax ([2]; Table 8a, N-phenyl compounds): 275 nm
CCCCCCCC(=O)C1=CN(c2ccc(N(C)C)cc2)CCC1(C)C [Compound 175, 1-(1-(4-(dimethylamino)phenyl)-4,4-dimethyl-1,4,5,6-tetrahydropyridin-3-yl)octan-1-one]	338 nm	28040 M⁻¹ cm⁻¹	
C=CCC(=O)C1=CN(CC(C)C)CCC1(C)C [Compound 29, 1-(1-isobutyl-4,4-dimethyl-1,4,5,6-tetrahydropyridin-3-yl)but-3-en-1-one]	310 nm		
CCC(=O)C1=CN(c2ccc(C)cc2)CCC1(C)C [Compound 176, 1-(4,4-dimethyl-1-(p-tolyl)-1,4,5,6-tetrahydropyridin-3-yl)propan-1-one]	327 nm	34608 M⁻¹ cm⁻¹	
C=CCCC(=O)C1=CN(CC(C)C)CCC1(C)C [Compound 8, 1-(1-Isobutyl-4,4-dimethyl-1,4,5,6-tetrahydropyridin-3-yl)pent-4-en-1-one]	308 nm	35000 M⁻¹ cm⁻¹	
CC1(C)CCN(C(C)(C)C)C=C1C(=O)CCCCCCCCC(=O)C1=CN(C(C)(C)C)CCC1(C)C [Compound 166, 1,10-bis(1-(tert-butyl)-4,4-dimethyl-1,4,5,6-tetrahydropyridin-3-yl)decane-1,10-dione]	307 nm	54797 M⁻¹ cm⁻¹	ε value ([2]; unit inferred): > 54000 M⁻¹ cm⁻¹
CC(C)CN1C=C(C(=O)c2ccc3c(c2)CCO3)C(C)(C)CC1 [Compound 18, (2,3-dihydrobenzofuran-5-yl)(1-isobutyl-4,4-dimethyl-1,4,5,6-tetrahydropyridin-3-yl)methanone]	320 nm	22000 M⁻¹ cm⁻¹	
COc1ccc(C(=O)C2=CN(CC(C)C)CCC2(C)C)cc1 [Compound 12, (1-isobutyl-4,4-dimethyl-1,4,5,6-tetrahydropyridin-3-yl) (4-methoxyphenyl)methanone]	319 nm		shift / increase in λmax [2]: approximately 11 nm
COc1ccc(C(=O)CC(=O)C2=CN(CC(C)C)CCC2(C)C)cc1 [Compound 13, 1-(1-isobutyl-4,4-dimethyl-1,4,5,6-tetrahydropyridin-3-yl)-3-(4-methoxyphenyl)propane-1,3-dione]	293 nm and 396 nm	14250 M⁻¹ cm⁻¹ and 11150 M⁻¹ cm⁻¹	
CC(C)=CC(=O)C1=CN(CC(C)C)CCC1(C)C [Compound 26, 1-(1-isobutyl-4,4-dimethyl-1,4,5,6-tetrahydropyridin-3-yl)-3-methylbut-2-en-1-one]	310 nm and 314 nm	19000 M⁻¹ cm⁻¹	
CC1(C)C=CN(c2ccccc2)C=C1 [Compound 50, 4,4-dimethyl-1-phenyl-1,4-dihydropyridine]	285 nm	16000 M⁻¹ cm⁻¹	
CCC(=O)C1=CN(c2ccccc2)CCC1(C)C [Compound 47, 1-(4,4-dimethyl-1-phenyl-1,4,5,6-tetrahydropyridin-3-yl)propan-1-one]	321 nm	23000 M⁻¹ cm⁻¹	
CC(C)CN1C=C(C(=O)c2ccc(-c3ccccc3)cc2)C(C)(C)CC1 [Compound 19, [1,1′-biphenyl]-4-yl(1-isobutyl-4,4-dimethyl-1,4,5,6-tetrahydropyridin-3-yl)methanone]	320 nm	18000 M⁻¹ cm⁻¹	
